Test results reported in paper PMC7997574, “Lead Optimization of Benzoxazolone Carboxamides as Orally Bioavailable and CNS Penetrant Acid Ceramidase Inhibitors” (Journal of Medicinal Chemistry, 2020).
≈ marks a conversion by molar mass, not a printed value.

Key:
AC = target: T1, AC (Homo sapiens, UniProt Q13510); assay: Fluorogenic hAC assay on hAC-enriched lysate of HEK293 cells; type: biochemical; set-up: expressed in transfected cells; settings: hAC expressed in HEK-293 cells; read-out: hAC IC50 (μM)±SD
T1 sequence (Q13510 22-395): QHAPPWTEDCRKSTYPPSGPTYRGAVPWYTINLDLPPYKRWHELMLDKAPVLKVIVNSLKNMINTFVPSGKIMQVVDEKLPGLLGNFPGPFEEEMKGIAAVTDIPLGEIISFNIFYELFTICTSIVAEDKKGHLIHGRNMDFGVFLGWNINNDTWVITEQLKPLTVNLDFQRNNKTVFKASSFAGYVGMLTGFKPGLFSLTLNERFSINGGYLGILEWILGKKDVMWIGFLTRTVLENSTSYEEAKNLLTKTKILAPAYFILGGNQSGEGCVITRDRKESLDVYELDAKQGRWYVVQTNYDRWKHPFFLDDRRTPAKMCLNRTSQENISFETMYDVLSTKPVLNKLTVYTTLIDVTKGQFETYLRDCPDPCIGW
Experimental: HEK293 cells stably expressing hAC were grown in Dulbecco’s modified Eagle medium (DMEM) containing 10% FBS, 1% glutamine, 1 mM sodium pyruvate, and 500 μg mL^–1 G418. Cells were harvested, and pellets were stored at −80 °C until lysosomal-enriched lysate preparation. Cells were suspended in 20 mM Tris HCl (pH 7.5) with 0.32 M sucrose, sonicated, and centrifuged at 800 × g for 30 min at 4 °C. Supernatants were then centrifuged at 12000 × g for 30 min at 4 °C. Pellets were resuspended in PBS (pH 7.4) and subjected to three freeze–thaw cycles at −80 °C. The suspension was finally centrifuged at 105000 × g for 1 h at 4 °C, and protein concentration was measured in the supernatant with the bicinchoninic acid based protein assay. This hAC-enriched preparation allowed us to further optimize the enzymatic assay and to use small amounts of lysate (2 μg per well) at a 5 μM substrate (Rbm14–12) around its KM (KM = 5.0 μM).
The assay was performed in Optiplate 96-well black plates, with each reaction well containing a mixture of 25 mM NaOAc buffer (pH 4.5) and a fixed amount of protein (2 μg) in a volume of 85 μL. After 10 min of preincubation with test compounds (diluted 20× from DMSO stock solutions at different concentrations), the fluorogenic probe was added (diluted 40× from EtOH stock solution, final concentration 5 μM). After 3 h of incubation at 37 °C, reactions were stopped with 50 μL of MeOH and 100 μL of a 2.5 mg mL^–1 NaIO4 fresh solution in 100 mM glycine/NaOH buffer (pH 10.6). The plates were further incubated for 2 h at 37 °C in the dark, and fluorescence intensities were measured at excitation/emission wavelengths of 355/460 nm. Negative control samples consisted of the same incubation mixture in the absence of protein-enriched extracts. Data were plotted as a function of compound concentrations. IC50 values were calculated by nonlinear regression analysis using GraphPad Prism 5 (GraphPad Software Inc., CA, USA) applying a standard slope curve fitting. The reported IC50 values are the mean of at least three independent experiments performed in three technical replicates.

[1] = In vitro plasma stability study; type: in vitro ADME; settings: mouse plasma; read-out: m-plasma t1/2
Experimental: Freshly prepared 10 mM MeCN stock solution of test compound was diluted 50-fold with DMSO/H2O (1:1) and incubated at 37 °C for 2 h with mouse plasma added in 5% DMSO (preheated at 37 °C for 10 min). The final concentration was 2 μM. At each time point (0, 5, 15, 30, 60, and 120 min), 50 μL of incubation mixture was diluted with 200 μL of cold MeCN spiked with 200 nM internal standard followed by centrifugation at 3300 × g for 20 min. The supernatant was further diluted with H2O (1:1) for analysis. The concentration of test compound was quantified by LC/MS/MS on a Waters ACQUITY UPLC/MS TQD system consisting of a TQD MS equipped with an ESI interface. The analyses were run on an ACQUITY UPLC BEH C18 (50 × 2.1 mm ID, particle size 1.7 μm) with a VanGuard BEH C18 precolumn (5 × 2.1 mm ID, particle size 1.7 μm) at 40 °C. For each compound, the appropriate mobile phase was chosen. ESI was applied in positive mode. The response factors, calculated on the basis of the internal standard peak area, were plotted over time. When possible, response vs time profiles were fitted with Prism (GraphPad Software, Inc., USA) to estimate compound t1/2 in plasma. Values are the mean of at least two independent experiments performed in two technical replicates.

[2] = Aqueous kinetic solubility assay; type: physicochemical; settings: PBS, pH 7.4
Experimental: The aqueous kinetic solubility was determined from a 10 mM MeCN stock solution of test compound in Phosphate-Buffered Saline (PBS) at pH 7.4. The study was performed by incubation of an aliquot of 10 mM MeCN stock solution in PBS (pH 7.4) at a target concentration of 250 μM. The incubation was carried out under shaking at 25 °C for 1 h followed by centrifugation at 21100 × g for 30 min. The supernatant was analyzed by UPLC/MS for the quantification of the dissolved compound (in μM) by UV at a specific wavelength (215 nm). […] The UPLC/MS analyses were performed on a Waters ACQUITY UPLC/MS system consisting of a single quadrupole detector (SQD) Mass Spectrometer (MS) equipped with an Electrospray Ionization (ESI) interface and a Photodiode Array Detector (PDA). The PDA range was 210–400 nm. ESI in positive mode was used in the mass scan range of 100–650 Da. The analyses were run on an ACQUITY UPLC BEH C18 column (50 × 2.1 mm ID, particle size 1.7 μm) with a VanGuard BEH C18 precolumn (5 × 2.1 mm ID, particle size 1.7 μm), using 10 mM NH4OAc in H2O at pH 5 adjusted with AcOH (A) and 10 mM NH4OAc in MeCN/H2O (95:5) at pH 5 (B) as the mobile phase. Values are reported as mean values of ≥2 experiments performed.

[3] = In vitro microsomal stability study; type: in vitro ADME; settings: mouse liver microsomes; for m-LM [% at 60 min]: % remaining at 60 min; for half-life at 4.6 μM / half-life at 1 h, 4.6 µM: pH 7.4, read-out: m-LM t1/2
Experimental: Freshly prepared 10 mM MeCN stock solution of test compound was preincubated at 37 °C for 15 min with mouse liver microsomes added in 0.1 M Tris HCl buffer (pH 7.4). The final concentration was 4.6 μM. After preincubation, the cofactors (NADPH, G6P, G6PDH, and MgCl2 predissolved in 0.1 M Tris HCl) were added to the incubation mixture, and the incubation was continued at 37 °C for 1 h. At each time point (0, 5, 15, 30, and 60 min), 30 μL of incubation mixture was diluted with 200 μL of cold MeCN spiked with 200 nM internal standard followed by centrifugation at 3300 × g for 15 min. The supernatant was further diluted with H2O (1:1) for analysis. The concentration of the test compound was quantified by LC/MS/MS on a Waters ACQUITY UPLC/MS TQD system consisting of a TQD MS equipped with an ESI interface. The analyses were run on an ACQUITY UPLC BEH C18 (50 × 2.1 mm ID, particle size 1.7 μm) with a VanGuard BEH C18 precolumn (5 × 2.1 mm ID, particle size 1.7 μm) at 40 °C. For each compound, the appropriate mobile phase was chosen. ESI was applied in positive mode. The percentage of test compound remaining at each time point relative to t = 0 was calculated. t1/2 was determined by a one-phase decay equation using a nonlinear regression of compound concentration vs time. Values are the mean of at least two independent experiments performed in two technical replicates.

## Cl.O=C(NCCCCc1ccccc1)n1c(=O)oc2cc(C3CCNCC3)ccc21 [22d, 2-Oxo-N-(4-phenylbutyl)-6-(4-piperidyl)-1,3-benzoxazole-3-carboxamide Hydrochloride]
AC
  IC50: 0.134 ± 0.014 µM
[1]
  half-life at 2 µM: 60 min
[2]
  solubility at 1 h: 150 µM
[3]
  m-LM [% at 60 min]: 70%
  half-life at 4.6 μM: > 60 min

## CN1CCC(c2ccc3c(c2)oc(=O)n3C(=O)NCCCCc2ccccc2)CC1 [22e, 6-(1-Methyl-4-piperidyl)-2-oxo-N-(4-phenylbutyl)-1,3-benzoxazole-3-carboxamide]
AC
  IC50: 0.129 ± 0.008 µM
[1]
  half-life at 2 µM: 50 min
[2]
  solubility at 1 h: 120 µM (≈ 48.9 µg/mL)
[3]
  half-life at 1 h, 4.6 µM: 40 min

## CCN1CCC(c2ccc3c(c2)oc(=O)n3C(=O)NCCCCc2ccccc2)CC1 [22f, 6-(1-Ethyl-4-piperidyl)-2-oxo-N-(4-phenylbutyl)-1,3-benzoxazole-3-carboxamide]
AC
  IC50: 0.092 ± 0.043 µM
[1]
  half-life at 2 µM: 50 min
[2]
  solubility at 1 h: 198 µM (≈ 83.5 µg/mL)
[3]
  half-life at 1 h, 4.6 µM: 60 min

## CC(C)N1CCC(c2ccc3c(c2)oc(=O)n3C(=O)NCCCCc2ccccc2)CC1 [22g, 6-(1-Isopropyl-4-piperidyl)-2-oxo-N-(4-phenylbutyl)-1,3-benzoxazole-3-carboxamide]
AC
  IC50: 0.094 ± 0.042 µM
[1]
  half-life at 2 µM: 40 min
[2]
  solubility at 1 h: 50 µM (≈ 21.8 µg/mL)
[3]
  half-life at 1 h, 4.6 µM: 60 min

## CC(C)CN1CCC(c2ccc3c(c2)oc(=O)n3C(=O)NCCCCc2ccccc2)CC1 [22h, 6-(1-Isobutyl-4-piperidyl)-2-oxo-N-(4-phenylbutyl)-1,3-benzoxazole-3-carboxamide]
AC
  IC50: 0.12 ± 0.03 µM
[1]
  half-life at 2 μM: 60 min
[2]
  solubility at 1 h: < 1 µM
[3]
  half-life at 4.6 μM: 60 min

## CC(=O)N1CCC(c2ccc3c(c2)oc(=O)n3C(=O)NCCCCc2ccccc2)CC1 [22i, 6-(1-Acetyl-4-piperidyl)-2-oxo-N-(4-phenylbutyl)-1,3-benzoxazole-3-carboxamide]
AC
  IC50: 0.064 ± 0.029 µM
[1]
  half-life at 2 µM: 30 min
[2]
  solubility at 1 h: < 1 µM
[3]
  half-life at 1 h, 4.6 µM: 60 min

## CN1CCC(c2ccc3c(c2)oc(=O)n3C(=O)NCCOCc2ccccc2)CC1 [22j, N-(2-Benzyloxyethyl)-6-(1-methyl-4-piperidyl)-2-oxo-1,3-benzoxazole-3-carboxamide]
AC
  IC50: 0.215 ± 0.013 µM
[1]
  half-life at 2 µM: 40 min
[2]
  solubility at 1 h: 73 µM (≈ 29.9 µg/mL)
[3]
  half-life at 1 h, 4.6 µM: 30 min

## CCCCCNC(=O)n1c(=O)oc2cc(C3CCN(C)CC3)ccc21 [22k, 6-(1-Methyl-4-piperidyl)-2-oxo-N-pentyl-1,3-benzoxazole-3-carboxamide]
AC
  IC50: 0.396 ± 0.075 µM
[1]
  half-life at 2 µM: 75 min
  half-life at 2 μM: > 60 min
[2]
  solubility at 1 h: 240 µM (≈ 82.9 µg/mL)
[3]
  m-LM [% at 60 min]: >60 [60%]
  half-life at 4.6 μM: > 60 min

## CN1CCC(c2ccc3c(c2)oc(=O)n3C(=O)NCCCCc2ccc(F)cc2)CC1 [22o, N-[4-(4-Fluorophenyl)butyl]-6-(1-methyl-4-piperidyl)-2-oxo-1,3-benzoxazole-3-carboxamide]
AC
  IC50: 0.094 ± 0.03 µM
[1]
  half-life at 2 µM: 20 min
[2]
  solubility at 1 h: 22 µM (≈ 9.36 µg/mL)
[3]
  half-life at 1 h, 4.6 µM: 30 min

## CN1CCC(c2cc3oc(=O)n(C(=O)NCCCCc4ccccc4)c3cc2F)CC1 [22p, 5-Fluoro-6-(1-methyl-4-piperidyl)-2-oxo-N-(4-phenylbutyl)-1,3-benzoxazole-3-carboxamide]
AC
  IC50: 0.024 ± 0.002 µM
[1]
  half-life at 2 µM: 20 min
[2]
  solubility at 1 h: 70 µM (≈ 29.8 µg/mL)
[3]
  m-LM [% at 60 min]: 70%
  half-life at 4.6 μM: > 60 min

## CN1CCC(c2ccc3c(c2)oc(=O)n3C(=O)NCCCCc2ccccc2)CC1=O (stereo not drawn) [22q, 6-(1-Methyl-2-oxo-4-piperidyl)-2-oxo-N-(4-phenylbutyl)-1,3-benzoxazole-3-carboxamide]
AC
  IC50: 0.105 ± 0.055 µM
[1]
  half-life at 2 µM: 36 min
[2]
  solubility at 1 h: 20 µM (≈ 8.43 µg/mL)
[3]
  half-life at 1 h, 4.6 µM: 35 min

## O=C(NCCCCc1ccccc1)n1c(=O)oc2cc(C3CCN(CC(F)F)CC3)ccc21 [22r, 6-[1-(2,2-Difluoroethyl)-4-piperidyl]-2-oxo-N-(4-phenylbutyl)-1,3-benzoxazole-3-carboxamide]
AC
  IC50: 0.095 ± 0.03 µM
[1]
  half-life at 2 µM: 50 min
[2]
  solubility at 1 h: < 1 µM
[3]
  half-life at 1 h, 4.6 µM: 20 min

## Cl.O=C(NCCCCc1ccccc1)n1c(=O)oc2cc(N3CCNCC3)ccc21 [23e, 2-Oxo-N-(4-phenylbutyl)-6-piperazin-1-yl-1,3-benzoxazole-3-carboxamide Hydrochloride]
AC
  IC50: 0.363 ± 0.18 µM
[1]
  half-life at 2 µM: 30 min
[2]
  solubility at 1 h: 20 µM
[3]
  half-life at 1 h, 4.6 µM: 45 min

## CN1CCN(c2ccc3c(c2)oc(=O)n3C(=O)NCCCCc2ccccc2)CC1 [23f, 6-(4-Methylpiperazin-1-yl)-2-oxo-N-(4-phenylbutyl)-1,3-benzoxazole-3-carboxamide]
AC
  IC50: 0.116 ± 0.069 µM
[1]
  half-life at 2 μM: < 5 min
[2]
  solubility at 1 h: < 1 µM
[3]
  half-life at 4.6 μM: < 5 min
